Experimental data as given in patent US4609730A, “7-[substituted imino-2-(2-aminothiazol-4-yl)-acetamido]-3(2,2-dihalovinyl or ethynyl)-3-cephem-4-carboxylic acid (syn isomers), having antimicrobial activities” (Fujisawa Pharmaceutical Co., Ltd., priority 1982, dated 1986).
Converted amounts (≈) assume the structure as drawn.

Columns and labels:
Klebsiella pneumoniae 20 = experiment: Minimal inhibitory concentration (MIC), two-fold agar-plate dilution method, Klebsiella pneumoniae 20; format: cell-based; conditions: HI-agar, 37° C., 20 hours, 10^8 viable cells per ml
Procedure: (§1) In vitro antibacterial activity was determined by the two-fold agar-plate dilution method as described below.
(§2) One loopful of an overnight culture of each test strain in Trypticase-soy broth (10^8 viable cells per ml) was streaked on heart infusion agar (HI-agar) containing graded concentrations of representative test compound, and the minimal inhibitory concentration (MIC) was expressed in terms of μg/ml after incubation at 37° C. for 20 hours.

Proteus mirabilis 18 = experiment: Minimal inhibitory concentration (MIC), two-fold agar-plate dilution method, Proteus mirabilis 18; format: cell-based; conditions: HI-agar, 37° C., 20 hours, 10^8 viable cells per ml
Procedure: as §1, §2

Proteus vulgaris 2 = experiment: Minimal inhibitory concentration (MIC), two-fold agar-plate dilution method, Proteus vulgaris 2; format: cell-based; conditions: HI-agar, 37° C., 20 hours, 10^8 viable cells per ml
Procedure: as §1, §2

[1] = Urinary excretion in rats after oral administration; format: in vivo; conditions: rat, 100 mg/kg, urine 0-24 hours, bioassay, read-out: Urinary recovery in 24 hours
Procedure: Urine of rats was collected with a urine collector at 0 to 6, and 6 to 24 hours after oral administration of 100 mg/kg of the test antibiotic. The antibiotic levels in the urine samples were bioassayed with the standard solution prepared with M/15 phosphate buffer pH 7.0) and the urinary recovery in 24 hours was calculated.

in vivo = conditions: rat, po, 100 mg/kg
Procedure: Rats anesthetized with pentobarbital were fixed in supine position, and a polyethylene cannula was inserted into the bile duct. Bile samples were collected at 0 to 3, 3 to 6, and 6 to 24 hours after oral administration of 100 mg/kg of the test antibiotic. The antibiotic levels in the bile samples were bioassayed with the standard solution prepared with M/15 phosphate buffer (pH 7.0) and the biliary recovery in 24 hours were calculated.

| Compound | MIC (Klebsiella pneumoniae 20) | MIC (Proteus mirabilis 18) | MIC (Proteus vulgaris 2) | dose excreted at 24 h [1] | dose excreted at 24 h (in vivo) |
| --- | --- | --- | --- | --- | --- |
| CO/N=C(\C(=O)NC1C(=O)N2C(C(=O)O)=C(C=C(Cl)Cl)CSC12)c1csc(N)n1 (stereo not drawn) [B, 7-[2-Methoxyimino-2-(2-aminothiazol-4-yl)acetamido]-3-(2,2-dichlorovinyl)-3-cephem-4-carboxylic acid (syn isomer)] | 0.025 µg/mL (≈ 0.0523 µM) | 0.05 µg/mL (≈ 0.105 µM) | 0.025 µg/mL (≈ 0.0523 µM) |  |  |
| C#CC1=C(C(=O)O)N2C(=O)C(NC(=O)/C(=N\OCC(=O)O)c3csc(N)n3)C2SC1 (stereo not drawn) [A, 7-[2-Carboxymethoxyimino-2-(2-aminothiazol-4-yl)-acetamido]-3-ethynyl-3-cephem-4-carboxylic acid (syn isomer)] | 0.1 µg/mL (≈ 0.222 µM) | 0.05 µg/mL (≈ 0.111 µM) | 0.025 µg/mL (≈ 0.0554 µM) | 20% | 7.46% |
